pIC50: −log10 of the molar value. Blank lines part the entries; values can stand above or below the compound they belong to.
What was measured:
[1] = system: phosphorylated MEK1/2 in human colon cancer cell HT-29; assay: Colon cancer cell HT-29 intracellular MEK phosphorylation inhibitory action in vitro (Western blot); format: cell-based; conditions: HT-29 cells, 2 hr treatment, anti-phosphorylated MEK1/2 (Ser217/221), read-out: IC50 (nM), MEK phosphorylation inhibition
Procedure: A cell suspension (500 μL) of human colon cancer cell HT-29 was plated in a 48-well plate (100,000 cells/well), and the cells were cultured overnight at 37° C. in the presence of 5% CO2, treated with a test compound (250 μL/well) diluted in 3-fold dilution series and cultured for two more hours. After 2 hr, the culture medium containing the test compound was removed, and the cells were lysed with SDS sample buffer (100 μL/well) and heated at 95° C. for 5 min. Thereafter, the cells were applied to SDS-PAGE, and the protein was transferred onto Sequi-Blot™ PVDF Membrane (Bio-Rad, Richmond, Calif.) by the Western blot method. The cells were blocked with a block-Ace solution (Snow Brand Milk Products Co., Ltd) dissolved in phosphate buffer to 5% W/V, and reacted overnight with anti-phosphorylated MEK1/2 (Ser217/221) (Cell signaling #9121) diluted 1000-fold with phosphate buffer containing 0.4% block-Ace. […] The membrane was washed in the same manner as above, chemical luminescence of a phosphorylated MEK1/2 protein labeled with the antibody, which was caused by ECL-plus Detection Reagent (Amersham bioscience), was detected by Luminescent Image Analyzer LAS-1000 (FUJIFILM Corporation).

[2] = system: human colon cancer cell HT-29; assay: Colon cancer cell HT-29 growth suppressive action in vitro (SRB); format: cell-based; conditions: 72 h, HT-29 cells, cultured for 3 days with compound, SRB staining, read-out: IC50 (nM), HT-29 growth suppression
Procedure: A cell suspension (100 μL, 3,000 cells/well) of human colon cancer cell HT-29 (purchased from ATCC) was plated in a 96-well plate, and the cells were cultured at 37° C. in a 5% carbon dioxide gas incubator. The next day, 2-fold serial dilution of each test compound solution (diluted from maximum concentration 20 μM) (100 μL) was added, and the cells were cultured for 3 days. The culture medium containing the test compound was removed, and the cells were washed with phosphate buffer (PBS). A 50% trichloroacetic acid solution was added to the final concentration of 10% (v/v), and the mixture was stood overnight at 4° C., whereby the cells were fixed to the plate. Then, a dye SRB 0.4% (W/V) solution (dissolved in 1% acetic acid) was added at 50 μl/well, whereby the cell protein was fixed and stained (Skehan et al., Journal Of National Cancer Institute, vol. 82, pp. 1107-1112, 1990). The cells were washed 3 times with 1% acetic acid solution (200 μL/well), and 100 μL of an extract (10 mM Tris buffer) was added to extract the dye. The absorbance at an absorption wavelength […] was measured, and cell amount was measured as a protein amount.

BRAF (V600E) kinase = target: T1, BRAF (V600E) kinase (Homo sapiens, UniProt P15056, V600E); assay: BRAF (V600E) kinase inhibitory activity ([γ-32P]ATP, GST-MEK1 (K96R) substrate); format: biochemical; conditions: 1 μM compound; BRAF (V600E) 30 ng, GST-MEK1 (K96R) 250 ng; room temperature, 20 min; read-out: The inhibitory rate of the compounds at 1 μM (%)
T1 construct: made in house; host or cells: SF-21 insect cells, recombinant baculovirus BAC-V600E
Procedure: Human BRAF gene was cloned by PCR using human Testis cDNA library (Clontech) as a template. The primer used for PCR was prepared from base sequence (Genbank Accession NM_004333) information of BRAF gene by adding a base sequence encoding flag peptide and a recognition sequence of the restriction enzyme to area encoding the BRAF kinase domain region, so that the protein contains an N-terminal Flag. The primer base sequence is shown below.
The PCR reaction was conducted using Pyrobest (Takara Shuzo Co., Ltd). The obtained PCR product was electrophoresed on agarose gel (1%), the DNA fragment amplified by PCR was recovered from the gel, and then digested with restriction enzymes EcoRI and SalI. The DNA treated with the restriction enzymes was electrophoresed on agarose gel (1%), and the obtained DNA fragment was recovered. The recovered DNA fragment was ligated to plasmid pFASTBAC1 (Invitrogen) digested with restriction enzymes EcoRI and SalI to give expression plasmid pFB-BRAF, and the base sequence of the insert fragment was confirmed. In addition, mutation was introduced into V600E using a Quick change Site Directed Mutagenesis kit (Stratagene). The nucleotide sequences of the primers used are shown in the following.
The obtained plasmid was sequenced to confirm the introduction of mutation into V600E. The plasmid DNA was digested with restriction enzymes EcoRI and SalI, DNA treated with the restriction enzymes was electrophoresed on agarose gel (1%), and the obtained DNA fragment was recovered. The recovered DNA fragment was ligated to plasmid pFASTBAC1 (Invitrogen) digested with restriction enzymes EcoRI and SalI to give expression plasmid pFB-V600E.
SF-21 cells were sown at 1×10^6 cells/mL to Sf-900II SFM medium (1 L, Invitrogen) containing 10% fetal bovine serum (Trace), 50 mg/L Gentamicin (Invitrogen) and 0.1% Pluronic F-68 (Invitrogen), and shaking culture was performed using a 2 L volume Erlenmeyer flask at 27° C., 100 rpm. After culturing for 24 hr, recombinant baculovirus BAC-V600E (13.4 mL) was added to the mixture, and the mixture was further cultured for 3 days. […]

[3] = system: Human umbilical vein vascular endothelial cells (HUVEC); assay: Vascular endothelial cell growth inhibitory test (VEGF-stimulated HUVEC, WST-8); format: cell-based; conditions: 120 h, VEGF 120 ng/mL solution added, 5 days of culture, read-out: IC50 value, vascular endothelial cell growth inhibition
Procedure: To be specific, HUVEC was suspended in a vascular endothelial cell medium containing the aforementioned 3% bovine fetal serum and plated in a 96 well flat bottom plate by 50 μL (3000 cells) each well. After culture overnight, various concentrations of the test substance and 120 ng/mL of vascular endothelial growth factor (VEGF) were dissolved in a vascular endothelial cell medium containing 3% bovine fetal serum and added to each well by 50 μL. […] The absorbance at 450 nm was measured by a microtiter plate reader and the cell growth inhibitory activity was determined.

[4] = target: T2, Platelet-derived growth factor receptor α (PDGFRα) intracellular domain protein (Homo sapiens, UniProt P16234); assay: PDGFRα kinase inhibitory activity (AlphaScreen); format: biochemical; conditions: ATP 25 μM solution; 25° C., 30 min; read-out: IC50 value, PDGFRα kinase inhibition
T2 construct: 125 ng/ml of PDGFα intracellular domain protein (UPSTATE); purchased UPSTATE
Procedure: (§1) A test compound dissolved in dimethyl sulfoxide (DMSO) was diluted with a buffer (50 mM Tris-HCl (pH 7.5), 5 mM MgCl2, 5 mM MnCl2, 2 mM dithiothreitol, 0.01% Tween-20). […] The reaction solution was allowed to stand at 25° C. for 16 hrs, and the wells were counted using a plate reader Fusion™ (PerkinElmer). The kinase inhibitory rate (%) of the test compound was calculated by the following formula: Inhibitory rate(%)=(1−(count of test compound−blank)÷(control−blank))×100
(§2) The count of the solution reacted without addition of the compound was used as a “control”, and the count of the solution without the compound and ATP was used as a “blank”.

[5] = target: T3, PDGFRβ intracellular domain protein (Homo sapiens, UniProt P09619); assay: PDGFRβ kinase inhibitory activity (AlphaScreen); format: biochemical; conditions: ATP 50 μM solution; 25° C., 60 min; read-out: IC50 value, PDGFRβ kinase inhibition
T3 construct: 125 ng/ml of PDGFRβ intracellular domain protein (UPSTATE); purchased UPSTATE
Procedure: as §1, with “hr,” for “hrs,”
as §2

[6] = target: VEGFR2 intracellular domain protein (Homo sapiens, UniProt P35968); assay: VEGF receptor 2 kinase inhibitory activity (AlphaScreen); conditions: read-out: The inhibitory rate of the compounds at 1 μM (VEGF receptor 2 kinase)
Chain of VEGFR2 intracellular domain protein (P35968 786-1356 limits assumed): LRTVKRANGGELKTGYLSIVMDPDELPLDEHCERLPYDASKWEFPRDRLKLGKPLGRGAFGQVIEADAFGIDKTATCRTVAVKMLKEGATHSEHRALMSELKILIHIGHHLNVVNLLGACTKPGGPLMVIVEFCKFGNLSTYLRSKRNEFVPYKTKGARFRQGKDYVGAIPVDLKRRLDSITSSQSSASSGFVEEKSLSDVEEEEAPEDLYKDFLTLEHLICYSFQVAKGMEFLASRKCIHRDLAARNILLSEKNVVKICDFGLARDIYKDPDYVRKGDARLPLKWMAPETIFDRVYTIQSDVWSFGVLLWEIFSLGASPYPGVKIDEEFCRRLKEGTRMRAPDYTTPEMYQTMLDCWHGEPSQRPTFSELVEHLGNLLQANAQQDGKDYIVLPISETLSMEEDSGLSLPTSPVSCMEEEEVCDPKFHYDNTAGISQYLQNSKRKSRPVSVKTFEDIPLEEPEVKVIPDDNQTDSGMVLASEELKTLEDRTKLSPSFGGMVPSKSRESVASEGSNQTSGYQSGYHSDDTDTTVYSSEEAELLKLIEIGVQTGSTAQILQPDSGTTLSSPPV
Procedure: Human vascular endothelial growth factor receptor 2 (hereinafter to be referred to as VEGFR2) gene was cloned by PCR using cDNA Libraries Human Placenta (Clontech) as a template.
The PCR reaction was conducted using a KOD-plus kit (TOYOBO). […] Furthermore, using BAC-TO-BAC Baculovirus Expression System (Invitrogen), virus stock BAC-VEGFR2 of recombinant baculovirus was prepared.
SF-21 cells were sown at 1×10^6 cells/mL to Sf-900II SEM medium (1 L, Invitrogen) containing 10% fetal bovine serum (trace), 50 mg/L Gentamicin (Invitrogen) and 0.1% Pluronic F-68 (Invitrogen), and shaking culture was performed using a 2 L volume Erlenmeyer flask at 27° C., 100 rpm. After culturing for 24 hrs, recombinant baculovirus BAC-VEGFR2 (13.4 mL) was added to the mixture, and the mixture was further cultured for 3 days. The culture medium was centrifuged at 2,000 rpm for 5 min to give virus-infected cells. The infected cells were washed with a phosphate buffered saline (Invitrogen), centrifuged under the same conditions, and the cells were preserved at −80° C. The cryopreserved cells were thawed in ice, suspended in buffer A (50 mM Tris buffer (30 mL, pH 7.4) containing 20% glycerol, 0.15 M NaCl) supplemented with Complete Protease Inhibitor (Boehringer), and ruptured 3 times with a Polytron homogenizer (Kinematica) at 20,000 rpm for 30 sec. The ruptured medium was clarified by centrifugation at 40,000 rpm for 30 min and filtered with a 0.45 μm filter. The filtrate was passed through a column packed with Anti-FLAG M2 Affinity Gel (4 mL, Sigma) at a flow rate of about 0.5 mL/min. The column was washed with buffer A, and eluted with buffer A containing 100 μg/mL of FLAG peptide. The eluate was concentrated with Vivaspin 20 (Vivascience) having a molecular weight cut off of 30K. The buffer of this concentrate was exchanged using NAP™ 25 column (Amersham Bioscience) equilibrated with buffer A. The fractions containing intracellular domain protein of VEGFR2 were collected, glycerol was added to the final concentration of 50% and cryopreserved at −80° C.
A test compound dissolved in DMSO was diluted with a buffer (50 mM Tris-HCl (pH 7.5), 5 mM MgCl2, 5 mM MnCl2, 2 mM dithiothreitol, 0.01% Tween-20). To this compound solution (5 μL) was added a buffer (10 μL) containing 50 ng/mL of VEGFR2 intracellular domain protein and 250 ng/mL of biotin labeled polypeptide biotinyl-poly-Glu:Tyr (4:1, CIS bio International). […] The reaction solution was allowed to stand at 25° C. for 16 hrs, and the wells were counted using a plate reader Fusion™ (PerkinElmer). The kinase inhibitory rate (%) of the test compound was calculated by the following formula: Inhibitory rate(%)=(1−(count of test compound−blank)÷(control−blank))×100

T1 sequence (P15056 457-717 V600E limits assumed): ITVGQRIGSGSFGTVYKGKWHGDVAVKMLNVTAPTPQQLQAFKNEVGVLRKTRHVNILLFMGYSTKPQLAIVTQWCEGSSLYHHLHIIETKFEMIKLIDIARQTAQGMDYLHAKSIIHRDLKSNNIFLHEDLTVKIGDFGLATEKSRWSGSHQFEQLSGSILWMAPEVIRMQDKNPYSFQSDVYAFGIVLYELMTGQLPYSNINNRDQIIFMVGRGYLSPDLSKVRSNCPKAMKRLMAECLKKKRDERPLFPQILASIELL
T2 sequence (P16234 550-1089 limits assumed): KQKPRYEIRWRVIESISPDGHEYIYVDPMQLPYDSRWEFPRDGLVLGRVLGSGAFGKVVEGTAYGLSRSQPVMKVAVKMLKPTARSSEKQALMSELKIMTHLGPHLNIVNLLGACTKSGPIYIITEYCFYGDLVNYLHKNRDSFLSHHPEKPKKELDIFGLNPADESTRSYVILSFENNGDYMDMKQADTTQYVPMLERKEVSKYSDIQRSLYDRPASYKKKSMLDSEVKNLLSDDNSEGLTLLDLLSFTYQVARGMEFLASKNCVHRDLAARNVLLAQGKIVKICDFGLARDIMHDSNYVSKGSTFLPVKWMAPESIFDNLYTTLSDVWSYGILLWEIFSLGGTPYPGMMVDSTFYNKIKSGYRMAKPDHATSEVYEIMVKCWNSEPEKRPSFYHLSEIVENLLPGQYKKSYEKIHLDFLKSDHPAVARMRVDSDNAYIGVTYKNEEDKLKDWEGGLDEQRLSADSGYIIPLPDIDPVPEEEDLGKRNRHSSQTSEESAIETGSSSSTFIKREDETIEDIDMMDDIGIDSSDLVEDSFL
T3 sequence (P09619 554-1106 limits assumed): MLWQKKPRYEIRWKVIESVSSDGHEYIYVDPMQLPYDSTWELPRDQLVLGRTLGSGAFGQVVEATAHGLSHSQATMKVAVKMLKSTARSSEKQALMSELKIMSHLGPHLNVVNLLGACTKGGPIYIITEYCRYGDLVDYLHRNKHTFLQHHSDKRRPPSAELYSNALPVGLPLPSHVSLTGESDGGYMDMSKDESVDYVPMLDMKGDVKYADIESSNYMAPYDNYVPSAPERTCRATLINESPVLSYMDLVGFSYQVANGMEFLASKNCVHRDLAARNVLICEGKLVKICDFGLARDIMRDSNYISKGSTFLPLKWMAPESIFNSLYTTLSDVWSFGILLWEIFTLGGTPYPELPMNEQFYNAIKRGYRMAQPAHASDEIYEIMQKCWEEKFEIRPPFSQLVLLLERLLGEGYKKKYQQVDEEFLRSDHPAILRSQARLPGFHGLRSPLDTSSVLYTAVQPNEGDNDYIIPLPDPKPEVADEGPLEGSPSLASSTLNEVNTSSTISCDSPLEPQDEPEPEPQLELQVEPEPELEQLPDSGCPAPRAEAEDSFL

- IC50 [1]: < 500 nM
Compound: N#CC1(c2cccc(C(=O)Nc3cccc(Oc4ccc5nc(NC(=O)C6CC6)nn5c4)c3)c2)CC1 [Example 232, 3-(1-cyanocyclopropyl)-N-[3-({2-[(cyclopropylcarbonyl)amino][1,2,4]triazolo[1,5-a]pyridin-6-yl}oxy)phenyl]benzamide]

- IC50 [2]: < 500 nM
Compound: Cc1ccc(NC(=O)c2cccc(C(C)(C)C#N)c2)cc1Oc1ccc2nc(NC(=O)C3CC3)nn2c1 [Example 233, 3-(1-cyano-1-methylethyl)-N-[3-({2-[(cyclopropylcarbonyl)amino][1,2,4]triazolo[1,5-a]pyridin-6-yl}oxy)-4-methylphenyl]benzamide]

- inhibition at 1 µM (BRAF (V600E) kinase): 100%
Compound: O=C(Nc1cccc(Oc2ccc3nc(NC(=O)C4CC4)cn3c2)c1)c1cccc(C(F)(F)F)c1 [Example 226, N-[3-({2-[(cyclopropylcarbonyl)amino]imidazo[1,2-a]pyridin-6-yl}oxy)phenyl]-3-(trifluoromethyl)benzamide]

- inhibition at 1 µM (BRAF (V600E) kinase): 100%
Compound: CC(C)(C#N)c1cccc(C(=O)Nc2cccc(Oc3ccc4nc(NC(=O)C5CC5)nn4c3)c2)c1 [Example 231, 3-(1-cyano-1-methylethyl)-N-[3-({2-[(cyclopropylcarbonyl)amino][1,2,4]triazolo[1,5-a]pyridin-6-yl}oxy)phenyl]benzamide]

- IC50 [1]: < 500 nM
- IC50 [2]: < 500 nM
Compound: CC(C)(C#N)c1cccc(C(=O)Nc2cccc(Oc3ccc4nc(NC(=O)C5CC5)cn4c3)c2)c1 [Example 228, 3-(1-cyano-1-methylethyl)-N-[3-({2-[(cyclopropylcarbonyl)amino]imidazo[1,2-a]pyridin-6-yl}oxy)phenyl]benzamide]

- inhibition at 1 µM (BRAF (V600E) kinase): 100%
Compound: Cc1ccc(NC(=O)c2cccc(C(F)(F)F)c2)cc1Oc1ccc2nc(NC(=O)C3CC3)nn2c1 [Example 235, N-[3-({2-[(cyclopropylcarbonyl)amino][1,2,4]triazolo[1,5-a]pyridin-6-yl}oxy)-4-methylphenyl]-3-(trifluoromethyl)benzamide]

- pIC50 [4]: ≥ 6.30
- pIC50 [5]: ≥ 6.30
- inhibition at 1 µM [6]: ≥ 90%
Compound: Cc1cccc(C(=O)Nc2cccc(Oc3ccc4nc(NC(=O)C5CC5)cn4c3)c2)n1 [Example 127-2, N-[3-({2-[(cyclopropylcarbonyl)amino]imidazo[1,2-a]pyridin-6-yl}oxy)phenyl]-6-methylpyridine-2-carboxamide]
- pIC50 [3]: ≥ 6.30

From patent publication US8304557B2, “Fused heterocycle derivatives and use thereof” (Takeda Pharmaceutical Company Limited, priority 2007, dated 2012)
